Data published in USRE40086E1, “Method for treating bacterial infection with novel 7-substituted-9-substituted amino 6-demethyl-6-deoxytetracyclines” (Wyeth Holdings Corporation, priority 1991, dated 2008).

Tests used:
E. coli PRP1 TetA = assay: MIC, agar dilution (Table IA); format: cell-based; conditions: unit assumed
[1] = tested on: E. coli UBMS 89-2 (Sensitive); assay: MIC, agar dilution; format: cell-based; conditions: E. coli UBMS 89-2 Tet Sens.; Table IA; unit assumed
[2] = tested on: S. aureus UBMS 90-1 (tetM); assay: MIC, agar dilution; format: cell-based; conditions: S. aureus UBMS 90-1 TetM; Table IA; unit assumed
[3] = tested on: S. aureus IVES 2943 (meth. resistant); assay: MIC, agar dilution; format: cell-based; conditions: S. aureus IVES 2943; Table IA; unit assumed
S. aureus SMITH (sens) [4] = assay: In vivo antibacterial evaluation, acute lethal infection in mice; conditions: Intraveneous
[5] = tested on: Ps. acruginosa ATCC 27853; assay: MIC, agar dilution (Table IA); format: cell-based; conditions: unit assumed
E. coli MC4100 TetB = assay: MIC, agar dilution (Table IA); format: cell-based; conditions: unit assumed
[6] = tested on: S. aureus UBMS 88-7 (tetK); assay: MIC, agar dilution; format: cell-based; conditions: S. aureus UBMS 88-7 TetK; Table IA; unit assumed
[7] = tested on: S. aureus UBMS 88-5 (tetM); assay: MIC, agar dilution; format: cell-based; conditions: S. aureus UBMS 88-5 TetM; Table IA; unit assumed
E. faecalis 12201 = assay: MIC, agar dilution; format: cell-based; conditions: Enterococcus 12201; Table IA; unit assumed
E. faecalis ATCC 29212 = assay: MIC, agar dilution; format: cell-based; conditions: E. faecalis ATCC 29212; Table IA; unit assumed
E. coli J3272 TetD = assay: MIC, agar dilution (Table IA); format: cell-based; conditions: unit assumed
E. coli BAJ9003 = assay: MIC, agar dilution (Table IA); format: cell-based; conditions: unit assumed
E. coli UBMS 88-1 (tetB) = assay: MIC, agar dilution; format: cell-based; conditions: E. coli UBMS 88-1 TetB; Table IA; unit assumed
E. coli UBMS 89-1 (tetM) = assay: MIC, agar dilution; format: cell-based; conditions: E. coli UBMS 89-1 TetM; Table IA; unit assumed
[8] = tested on: S. aureus UBMS 90-2 (tetM); assay: MIC, agar dilution; format: cell-based; conditions: S. aureus UBMS 90-2 TetM; Table IA; unit assumed
[9] = tested on: S. aureus IVES 1983 (meth. resistant); assay: MIC, agar dilution; format: cell-based; conditions: S. aureus IVES 1983; Table IA; unit assumed
S. aureus ROSE (MP) = assay: MIC, agar dilution (Table IA); format: cell-based; conditions: unit assumed
E. coli ATCC 25922 = assay: MIC, agar dilution; format: cell-based; conditions: E. coli ATCC 25922; Table IA; unit assumed
S. aureus SMITH (sens) [10] = assay: In vivo antibacterial evaluation, acute lethal infection in mice; conditions: Oral
Text: In Vivo Antibacterial Evaluation (Table VII)

[11] = tested on: Wild Type S30 extract, E. coli strain MRE600 (tetracycline sensitive); assay: E. coli in vitro transcription and protein translation, 35S-methionine incorporation (Table VIII)
E. coli UBMS 90-5 = assay: MIC, agar dilution (Table IA); format: cell-based; conditions: unit assumed
[12] = tested on: TetM S30 extract, derivative of E. coli MRE600 containing the tetM determinant; assay: E. coli in vitro transcription and protein translation, 35S-methionine incorporation (Table VIII)
E. coli #311 (MP) = assay: MIC, agar dilution (Table IA); format: cell-based; conditions: unit assumed
E. coli J2175 = assay: MIC, agar dilution (Table IA); format: cell-based; conditions: unit assumed
[13] = tested on: S. aureus UBMS 88-4 (Sensitive); assay: MIC, agar dilution; format: cell-based; conditions: S. aureus UBMS 88-4; Table IA; unit assumed
E. coli J3272 Tet sens. = assay: MIC, agar dilution (Table IA); format: cell-based; conditions: unit assumed
[14] = tested on: S. aureus ATCC 29213 (Sensitive); assay: MIC, agar dilution; format: cell-based; conditions: S. aureus ATCC 29213; Table IA; unit assumed
[15] = tested on: S. haemolyticus AVAH 88-3; assay: MIC, agar dilution; format: cell-based; conditions: S. hemolyticus AVHAH 88-3; Table IA; unit assumed
E. coli J3272 TetC = assay: MIC, agar dilution (Table IA); format: cell-based; conditions: unit assumed
[16] = tested on: S. aureus UBMS 90-3 (Sensitive); assay: MIC, agar dilution; format: cell-based; conditions: S. aureus UBMS 90-3; Table IA; unit assumed
S. aureus NEMC 8769/89-4 = assay: MIC, agar dilution (Table IA); format: cell-based; conditions: unit assumed
S. mariescens FDOR 8733 = assay: MIC, agar dilution (Table IA); format: cell-based; conditions: unit assumed
[17] = tested on: S. aureus Smith (Sensitive); assay: MIC, agar dilution; format: cell-based; conditions: S. aureus SMITH (MP); Table IA; unit assumed
E. coli UBMS 90-4 (tetM) = assay: MIC, agar dilution; format: cell-based; conditions: E. coli UBMS 90-4 TetM; Table IA; unit assumed
[18] = tested on: X. maltophilia NEMC 87210; assay: MIC, agar dilution (Table IA); format: cell-based; conditions: unit assumed

## CC(C(=O)Nc1cc(N(C)C)c2c(c1O)C(=O)C1=C(O)[C@]3(O)C(=O)C(C(N)=O)=C(O)[C@@H](N(C)C)C3CC1C2)N(C)C.Cl.Cl (stereo partly shown) [XX]
E. coli PRP1 TetA
  Antibacterial activity (MIC): 1 µg/mL
[1]
  Antibacterial activity (MIC): 0.5 µg/mL
[2]
  Antibacterial activity (MIC): 0.25 µg/mL
[3]
  Antibacterial activity (MIC): 1 µg/mL
S. aureus SMITH (sens) [4]
  ED50: 0.5 to 1 mg/kg
[5]
  Antibacterial activity (MIC): 32 µg/mL
E. coli MC4100 TetB
  Antibacterial activity (MIC): 1 µg/mL
[6]
  Antibacterial activity (MIC): 1 µg/mL
[7]
  Antibacterial activity (MIC): 0.25 µg/mL
E. faecalis 12201
  Antibacterial activity (MIC): 0.12 µg/mL
E. faecalis ATCC 29212
  Antibacterial activity (MIC): 0.12 µg/mL
E. coli J3272 TetD
  Antibacterial activity (MIC): 0.25 µg/mL
E. coli BAJ9003
  Antibacterial activity (MIC): 0.06 µg/mL
E. coli UBMS 88-1 (tetB)
  Antibacterial activity (MIC): 0.5 µg/mL
E. coli UBMS 89-1 (tetM)
  Antibacterial activity (MIC): 0.12 µg/mL
[8]
  Antibacterial activity (MIC): 0.25 µg/mL
[9]
  Antibacterial activity (MIC): 1 µg/mL
S. aureus ROSE (MP)
  Antibacterial activity (MIC): 1 µg/mL
E. coli ATCC 25922
  Antibacterial activity (MIC): 0.5 µg/mL
S. aureus SMITH (sens) [10]
  ED50: 8 to 16 mg/kg
[11]; 0.06 mg/ml
  % INHIBITION Wild Type S30: 85%
[11]; 0.2 mg/ml
  % INHIBITION Wild Type S30: 96%
[11]; 1.0 mg/ml
  % INHIBITION Wild Type S30: 98%
E. coli UBMS 90-5
  Antibacterial activity (MIC): 0.5 µg/mL
[12]; 0.06 mg/ml
  % INHIBITION TetM S30: 78%
[12]; 0.2 mg/ml
  % INHIBITION TetM S30: 89%
[12]; 1.0 mg/ml
  % INHIBITION TetM S30: 97%
E. coli #311 (MP)
  Antibacterial activity (MIC): 0.5 µg/mL
E. coli J2175
  Antibacterial activity (MIC): 0.5 µg/mL
[13]
  Antibacterial activity (MIC): 0.25 µg/mL
E. coli J3272 Tet sens.
  Antibacterial activity (MIC): 0.5 µg/mL
[14]
  Antibacterial activity (MIC): 0.25 µg/mL
[15]
  Antibacterial activity (MIC): 0.5 µg/mL
E. coli J3272 TetC
  Antibacterial activity (MIC): 1 µg/mL
[16]
  Antibacterial activity (MIC): 0.25 µg/mL
S. aureus NEMC 8769/89-4
  Antibacterial activity (MIC): 0.12 µg/mL
S. mariescens FDOR 8733
  Antibacterial activity (MIC): 4 µg/mL
[17]
  Antibacterial activity (MIC): 0.25 µg/mL
E. coli UBMS 90-4 (tetM)
  Antibacterial activity (MIC): 0.5 µg/mL
[18]
  Antibacterial activity (MIC): 0.5 µg/mL
